Results published in the supplement of paper PMC11061612.

Assays:
[1] = compound: C1CC(C1)(C(=O)[O-])C(=O)[O-].N.N.[Pt+2] [Carboplatin]; conditions: max 10 µM
Outline: (§1)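 Cancer cell lines were seeded into 1536-well plates in 7.5 μl medium (DMEM/F12 or RPMI, 10% FBS), held 24 hours at 37°C and 5% CO2, and dosed for 72 hours with final DMSO typically 0.2%. Luminescence from CellTiter-Glo 2.0, scaled between blank-well and DMSO-well means, served as viability. The single-agent IC50 was obtained from dose-response fits with a non-linear mixed effects model, each fit being a two-parameter logistic curve.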

[2] = compound: C1CN(CCC1(C(=O)N[C@@H](CCO)C2=CC=C(C=C2)Cl)N)C3=NC=NC4=C3C=CN4 [AZD5363]; conditions: max 10 µM
Outline: as §1

[3] = compound: C=CCn1c(=O)c2cnc(Nc3ccc(N4CCN(C)CC4)cc3)nc2n1-c1cccc(C(C)(C)O)n1 [AZD1775]; conditions: max 3 µM
Outline: as §1

[4] = compound: CC(=O)Nc1cccc(-n2c(=O)n(C3CC3)c(=O)c3c(Nc4ccc(I)cc4F)n(C)c(=O)c(C)c32)c1 [Trametinib]; conditions: max 1 µM
Outline: as §1

[5] = compound: CC(=O)O[C@H]1C(=O)[C@@]2(C)[C@H]([C@H](OC(=O)c3ccccc3)[C@]3(O)C[C@H](OC(=O)[C@H](O)[C@@H](NC(=O)c4ccccc4)c4ccccc4)C(C)=C1C3(C)C)[C@]1(OC(C)=O)CO[C@@H]1C[C@@H]2O [Paclitaxel]; conditions: max 3 µM
Outline: as §1

[6] = compound: CC(=O)c1c(C)c2cnc(Nc3ccc(N4CCNCC4)cn3)nc2n(C2CCCC2)c1=O [Palbociclib]; conditions: max 10 µM
Outline: as §1

[7] = compound: CC(C)n1c(=O)n(C)c2cnc3cc(F)c(-c4ccc(OCCCN5CCCCC5)nc4)cc3c21 [AZD1390]; conditions: max 0.3 µM
Outline: as §1

[8] = compound: CC1(C)CCC(CN2CCN(c3ccc(C(=O)NS(=O)(=O)c4ccc(NCC5CCOCC5)c([N+](=O)[O-])c4)c(Oc4cnc5[nH]ccc5c4)c3)CC2)=C(c2ccc(Cl)cc2)C1 [Venetoclax]; conditions: max 1 µM
Outline: as §1

[9] = compound: CC1=C(C(=CC=C1)Cl)NC(=O)C2=CN=C(S2)NC3=CC(=NC(=N3)C)N4CCN(CC4)CCO [Dasatinib]; conditions: max 2 µM
Outline: as §1

[10] = compound: CC1=CN2[C@@H](C1)C=NC3=CC(=C(C=C3C2=O)OC)OCCCCCOC4=C(C=C5C(=C4)N=C[C@@H]6CC(=CN6C5=O)C)OC [SG3199]; conditions: max 0.001 µM
Outline: as §1

[11] = compound: CCN(CCO)CCCOc1ccc2c(Nc3cc(CC(=O)Nc4cccc(F)c4)[nH]n3)ncnc2c1 [AZD2811]; conditions: max 1 µM
Outline: as §1

[12] = compound: CCc1c2c(nc3ccc(O)cc13)-c1cc3c(c(=O)n1C2)COC(=O)[C@]3(O)CC [SN-38]; conditions: max 0.3 µM
Outline: as §1

[13] = compound: CN(C)CCCOc1ccc(-c2ccc3ncc4c(c3c2)n(C2CCOCC2)c(=O)n4C)cn1 [AZD0156]; conditions: max 3 µM
Outline: as §1

[14] = compound: CN(CC[C@H](CSC1=CC=CC=C1)NC2=C(C=C(C=C2)S(=O)(=O)NC(=O)C3=CC=C(C=C3)N4CCC(CC4)[C@H](C5=CC=CC=C5C6=CC=C(C=C6)Cl)O)S(=O)(=O)C(F)(F)F)CCO [AZD4320]; conditions: max 1 µM
Outline: as §1

[15] = compound: COc1cc(Nc2ncc3c(n2)-c2ccc(Cl)cc2C(c2c(F)cccc2OC)=NC3)ccc1C(=O)O [Alisertib]; conditions: max 10 µM
Outline: as §1

[16] = compound: COc1cc([C@@H]2c3cc4c(cc3[C@@H](O[C@@H]3O[C@@H]5CO[C@@H](C)O[C@H]5[C@H](O)[C@H]3O)[C@H]3COC(=O)[C@H]23)OCO4)cc(OC)c1O [Etoposide]; conditions: max 10 µM
Outline: as §1

[17] = compound: COc1cc2ncnc(Nc3ccc(F)c(Cl)c3)c2cc1OCCCN1CCOCC1 [Gefitinib]; conditions: max 10 µM
Outline: as §1

[18] = compound: COc1cccc(OCCCN)c1-c1cc(Nc2cnc(C#N)cn2)n[nH]1 [Prexasertib]; conditions: max 1 µM
Outline: as §1

[19] = compound: COc1cccc2c1C(=O)c1c(O)c3c(c(O)c1C2=O)C[C@@](O)(C(=O)CO)C[C@@H]3O[C@H]1C[C@H](N)[C@H](O)[C@H](C)O1 [Doxorubicin]; conditions: max 1 µM
Outline: as §1

[20] = compound: COc1nnc2ccc(N3CCC(c4ccc(OCCN5CCN(C)C(=O)[C@H]5C)cc4)CC3)nn12 [AZD5153]; conditions: max 1 µM
Outline: as §1

[21] = compound: CS(=O)(=O)CCNCc1ccc(-c2ccc3ncnc(Nc4ccc(OCc5cccc(F)c5)c(Cl)c4)c3c2)o1 [Lapatinib]; conditions: max 10 µM
Outline: as §1

[22] = compound: C[C@@H](Nc1cc(F)cc(F)c1)c1cc(C(=O)N(C)C)cc2c(=O)cc(N3CCOCC3)oc12 [AZD8186]; conditions: max 10 µM
Outline: as §1

[23] = compound: C[C@@H](Oc1cc(-c2cnn(C3CCNCC3)c2)cnc1N)c1c(Cl)ccc(F)c1Cl [Crizotinib]; conditions: max 10 µM
Outline: as §1

[24] = compound: C[C@@H](c1ccc2nccn2c1)n1nnc2ncc(-c3cnn(C)c3)nc21 [Savolitinib]; conditions: max 1 µM
Outline: as §1

[25] = compound: C[C@@H]1COCCN1C2=NC(=NC(=C2)C3(CC3)[S@](=N)(=O)C)C4=C5C=CNC5=NC=C4 [AZD6738]; conditions: max 10 µM
Outline: as §1

[26] = compound: Cc1c2c(nn1C)CSCc1cc(n(C)n1)CSc1cc(c3ccccc3c1)OCCCc1c(C(=O)O)n(C)c3c-2c(Cl)ccc13 [AZD5991]; conditions: max 1 µM
Outline: as §1

[27] = compound: Cc1cc2ncnn2cc1Nc1ncc2c(n1)n(C1CCOCC1)c(=O)n2C [AZD7648]; conditions: max 10 µM
Outline: as §1

[28] = compound: Cc1nc(-c2cn3c(n2)-c2ccc(-c4cnn(C(C)(C)C(N)=O)c4)cc2OCC3)n(C(C)C)n1 [Taselisib]; conditions: max 10 µM
Outline: as §1

[29] = compound: Cn1cnc2c(F)c(Nc3ccc(Br)cc3Cl)c(C(=O)NOCCO)cc21 [Selumetinib]; conditions: max 10 µM
Outline: as §1

[30] = compound: N#Cc1cnc(Nc2cc(NC[C@H]3CNCCO3)c(C(F)(F)F)cn2)cn1 [SRA737]; conditions: max 10 µM
Outline: as §1

[31] = compound: NC1(c2ccc(-c3nc4ccn5c(=O)[nH]nc5c4cc3-c3ccccc3)cc2)CCC1 [MK-2206]; conditions: max 10 µM
Outline: as §1

[32] = compound: Nc1ccn([C@@H]2O[C@H](CO)[C@@H](O)C2(F)F)c(=O)n1 [Gemcitabine]; conditions: max 0.3 µM
Outline: as §1

[33] = compound: O=C(Nc1ccc2[nH]nc(-c3ccncc3)c2c1)[C@@H]1CCN(CC(=O)N2CCN(c3ccc(-c4ncccn4)cc3)CC2)C1; conditions: max 5 µM
Outline: as §1

[34] = compound: O=C(c1cc(Cc2n[nH]c(=O)c3ccccc23)ccc1F)N1CCN(C(=O)C2CC2)CC1 [Olaparib]; conditions: max 10 µM
Outline: as §1

[35] = compound: O=c1[nH]cc(F)c(=O)[nH]1 [5-Fluorouracil]; conditions: max 20 µM
Outline: as §1

Row | Cell Line | IC50, cell viability 72 h [1] [nM] | IC50, cell viability 72 h [2] [nM] | IC50, cell viability 72 h [3] [nM] | IC50, cell viability 72 h [4] [nM] | IC50, cell viability 72 h [5] [nM] | IC50, cell viability 72 h [6] [nM] | IC50, cell viability 72 h [7] [nM] | IC50, cell viability 72 h [8] [nM] | IC50, cell viability 72 h [9] [nM] | IC50, cell viability 72 h [10] [nM] | IC50, cell viability 72 h [11] [nM] | IC50, cell viability 72 h [12] [nM] | IC50, cell viability 72 h [13] [nM] | IC50, cell viability 72 h [14] [nM] | IC50, cell viability 72 h [15] [nM] | IC50, cell viability 72 h [16] [nM] | IC50, cell viability 72 h [17] [nM] | IC50, cell viability 72 h [18] [nM] | IC50, cell viability 72 h [19] [nM] | IC50, cell viability 72 h [20] [nM] | IC50, cell viability 72 h [21] [nM] | IC50, cell viability 72 h [22] [nM] | IC50, cell viability 72 h [23] [nM] | IC50, cell viability 72 h [24] [nM] | IC50, cell viability 72 h [25] [nM] | IC50, cell viability 72 h [26] [nM] | IC50, cell viability 72 h [27] [nM] | IC50, cell viability 72 h [28] [nM] | IC50, cell viability 72 h [29] [nM] | IC50, cell viability 72 h [30] [nM] | IC50, cell viability 72 h [31] [nM] | IC50, cell viability 72 h [32] [nM] | IC50, cell viability 72 h [33] [nM] | IC50, cell viability 72 h [34] [nM] | IC50, cell viability 72 h [35] [nM]
1 | T84 (Colorectal Carcinoma) | > 10000 | > 10000 | 1310 | 804 | 548 | > 10000 | > 300 | > 1000 | > 2000 | > 1 | > 1000 | 131 | > 3000 | > 1000 | > 10000 | > 10000 | > 10000 | 89.7 | > 1000 | > 1000 | > 10000 | > 10000 | > 10000 | > 1000 | 6780 | > 1000 | > 10000 | 4660 | > 10000 | 4610 | > 10000 | 276 | > 5000 | > 10000 | > 20000
2 | KALS-1 (Glioblastoma) | > 10000 | > 10000 | 1190 | 260 | 17.1 | > 10000 | > 300 | > 1000 | 1160 | > 1 | > 1000 | 262 | > 3000 | > 1000 | > 10000 | > 10000 | > 10000 | 10.9 | > 1000 | 254 | > 10000 | > 10000 | > 10000 | > 1000 | 2390 | > 1000 | > 10000 | > 10000 | > 10000 | 2710 | > 10000 | 297 | 1270 | > 10000 | > 20000
3 | ES6 (Ewing's Sarcoma) | > 10000 | > 10000 | > 3000 | > 1000 | > 3000 | > 10000 | > 300 | > 1000 | > 2000 | > 1 | > 1000 | > 300 | > 3000 | > 1000 | > 10000 | > 10000 | > 10000 | 481 | > 1000 | > 1000 | > 10000 | > 10000 | > 10000 | > 1000 | > 10000 | > 1000 | > 10000 | 3630 | > 10000 | > 10000 | > 10000 | 268 | > 5000 | > 10000 | > 20000
